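These data come from cells grown in 96-well plates and exposed to compound for 48 hours at five concentrations. GI50 marks 50% less growth.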 The source made the active and inactive calls. Cut-off read from the data, not from the text of the source: active = GI50 up to about 1.1 µM and inactive = higher.
Experiments:
Experiment in all cases: NCI anticancer screen, dose series, 48 h
SK-MEL-5 = system: SK-MEL-5
IGROV-1 = system: IGROV-1
HCC 2998 = system: HCC 2998
CAKI-1 = system: CAKI-1
SNB-75 = system: SNB-75
SK-MEL-2 = system: SK-MEL-2
U-251 = system: U-251
HCT-116 = system: HCT-116
SR = system: SR
KM12 = system: KM12
LOX IMVI = system: LOX IMVI
SF-295 = system: SF-295
EKVX = system: EKVX
SNB-19 = system: SNB-19
XF498 = system: XF498
NCI-H23 = system: NCI-H23
DU-145 = system: DU-145

Measured: GI50

CNS(=O)(=O)NN(C)S(=O)(=O)c1ccc(Br)cc1
inactive: SK-MEL-5 > 100 µM | IGROV-1 > 100 µM | HCC 2998 > 100 µM | CAKI-1 > 100 µM | SNB-75 > 100 µM | SK-MEL-2 > 100 µM | U-251 72.9 µM | HCT-116 > 100 µM | SR > 100 µM | KM12 > 100 µM | LOX IMVI > 100 µM | SF-295 > 100 µM | EKVX > 100 µM | SNB-19 > 100 µM | XF498 > 100 µM | NCI-H23 > 100 µM

O=C(CC1C(=O)Nc2ccccc2S1(=O)=O)Nc1cccc(Cl)c1 (stereo unspecified)
inactive: SK-MEL-5 19.1 µM | IGROV-1 18.9 µM | HCC 2998 18.2 µM | CAKI-1 21.1 µM | SNB-75 16.8 µM | SK-MEL-2 27.1 µM | U-251 13.6 µM | HCT-116 18.2 µM | SR 18.2 µM | LOX IMVI 15.2 µM | SF-295 24.7 µM | EKVX 17.2 µM | SNB-19 19.4 µM | XF498 21.3 µM | NCI-H23 18.9 µM

CCOC(=O)C1=C(O)C(=O)c2cc(C)ccc2C1=O
inactive: SK-MEL-5 31 µM | IGROV-1 > 100 µM | HCC 2998 > 100 µM | CAKI-1 > 100 µM | SNB-75 43.5 µM | SK-MEL-2 > 100 µM | U-251 > 100 µM | HCT-116 81.7 µM | SR > 100 µM | KM12 > 100 µM | LOX IMVI 55.2 µM | SF-295 54.3 µM | EKVX > 100 µM | SNB-19 31.6 µM | XF498 > 100 µM | NCI-H23 27.2 µM

CCOP(=O)(OCC)/C(C#N)=C\c1ccc(OC(C)=O)cc1
inactive: SK-MEL-5 > 100 µM | IGROV-1 > 100 µM | DU-145 > 100 µM | HCC 2998 > 100 µM | CAKI-1 > 100 µM | SNB-75 > 78.5 µM | SK-MEL-2 > 100 µM | U-251 > 100 µM | HCT-116 > 100 µM | SR > 100 µM | KM12 > 100 µM | LOX IMVI > 100 µM | SF-295 > 100 µM | EKVX > 100 µM | SNB-19 > 100 µM | XF498 > 100 µM | NCI-H23 > 100 µM

COc1cc2c(cc1OC)C(=O)C(C1=C(SC(=N)N)C(=O)c3cc(OC)c(OC)cc31)C2 (stereo unspecified)
inactive: SK-MEL-5 > 100 µM | IGROV-1 > 100 µM | HCC 2998 > 100 µM | CAKI-1 > 100 µM | SNB-75 > 100 µM | SK-MEL-2 > 100 µM | U-251 > 100 µM | HCT-116 > 100 µM | SR > 100 µM | KM12 > 100 µM | LOX IMVI > 100 µM | SF-295 > 100 µM | EKVX > 100 µM | SNB-19 > 100 µM | XF498 > 100 µM | NCI-H23 > 100 µM

NC(CCSC(F)F)C(=O)O (stereo unspecified)
inactive: SK-MEL-5 > 100 µM | IGROV-1 > 100 µM | HCC 2998 > 100 µM | CAKI-1 > 100 µM | SNB-75 > 100 µM | SK-MEL-2 > 100 µM | U-251 > 100 µM | HCT-116 > 100 µM | SR > 100 µM | KM12 > 100 µM | LOX IMVI > 100 µM | SF-295 > 100 µM | EKVX > 100 µM | SNB-19 > 100 µM | XF498 > 100 µM | NCI-H23 > 100 µM

Reference: ChEMBL document CHEMBL1201862, “PubChem BioAssay data set” (2004)
